Test results as given in the CheMixHub drug solubility set.

Experiment: xn = mol fraction of the nth substance listed, in the solute-free solvent

Cc1c(Br)c(=O)n(C2CCCC2)c2nc(Cl)ncc12 + C1CCOC1 + CCO
solubility (g/100 g solution)
Conditions | 278.15 K | 283.15 K | 288.15 K | 293.15 K | 298.15 K | 303.15 K | 308.15 K | 313.15 K | 318.15 K | 323.15 K
x2 = 0.1 | 0.59 | 0.723 | 0.88 | 1.07 | 1.28 | 1.53 | 1.82 | 2.14 | 2.52 | 2.94
x2 = 0.2 | 1.06 | 1.25 | 1.51 | 1.81 | 2.16 | 2.56 | 3.01 | 3.52 | 4.1 | 4.74
x2 = 0.3 | 1.49 | 1.8 | 2.16 | 2.58 | 3.05 | 3.6 | 4.21 | 4.9 | 5.66 | 6.51
x2 = 0.4 | 1.9 | 2.29 | 2.74 | 3.26 | 3.84 | 4.51 | 5.26 | 6.1 | 7.04 | 8.07
x2 = 0.5 | 2.25 | 2.71 | 3.34 | 3.83 | 4.52 | 5.29 | 6.16 | 7.13 | 8.2 | 9.38
x2 = 0.6 | 2.56 | 3.07 | 3.67 | 4.35 | 5.12 | 5.99 | 6.96 | 8.04 | 9.23 | 10.5
x2 = 0.7 | 2.85 | 3.42 | 4.08 | 4.83 | 5.68 | 6.64 | 7.71 | 8.9 | 10.2 | 11.7
x2 = 0.8 | 3.12 | 3.75 | 4.47 | 5.29 | 6.22 | 7.27 | 8.44 | 9.73 | 11.2 | 12.7
x2 = 0.9 | 3.34 | 4.01 | 4.79 | 5.67 | 6.67 | 7.79 | 9.04 | 10.4 | 11.9 | 13.6

Cc1c(Br)c(=O)n(C2CCCC2)c2nc(Cl)ncc12 + CC1=CC(=O)CC(C)(C)C1 + CC(C)O
solubility (g/100 g solution)
Conditions | 278.15 K | 283.15 K | 288.15 K | 293.15 K | 298.15 K | 303.15 K | 308.15 K | 313.15 K | 318.15 K | 323.15 K
x2 = 0.1 | 0.104 | 0.147 | 0.203 | 0.285 | 0.388 | 0.522 | 0.702 | 0.929 | 1.27 | 1.59
x2 = 0.2 | 0.167 | 0.234 | 0.327 | 0.45 | 0.61 | 0.819 | 1.09 | 1.43 | 1.87 | 2.42
x2 = 0.3 | 0.232 | 0.325 | 0.45 | 0.614 | 0.828 | 1.11 | 1.47 | 1.92 | 2.49 | 3.21
x2 = 0.4 | 0.288 | 0.401 | 0.554 | 0.752 | 1.02 | 1.35 | 1.79 | 2.33 | 3.02 | 3.87
x2 = 0.5 | 0.332 | 0.458 | 0.633 | 0.862 | 1.16 | 1.54 | 2.03 | 2.65 | 3.43 | 4.39
x2 = 0.6 | 0.364 | 0.506 | 0.697 | 0.947 | 1.27 | 1.69 | 2.23 | 2.9 | 3.75 | 4.8
x2 = 0.7 | 0.391 | 0.543 | 0.746 | 1.01 | 1.37 | 1.82 | 2.39 | 3.12 | 4.02 | 5.14
x2 = 0.8 | 0.416 | 0.579 | 0.796 | 1.08 | 1.45 | 1.93 | 2.54 | 3.32 | 4.28 | 5.48
x2 = 0.9 | 0.441 | 0.613 | 0.844 | 1.15 | 1.54 | 2.05 | 2.7 | 3.52 | 4.55 | 5.82

CCOc1ccccc1C(N)=O + CC#N + CC(C)O
solubility (g/100 g solution)
Conditions | x2 = 0.1 | x2 = 0.2 | x2 = 0.3 | x2 = 0.4 | x2 = 0.5 | x2 = 0.6 | x2 = 0.7 | x2 = 0.8 | x2 = 0.9
298.15 K | 4.36 | 5.28 | 6.05 | 6.41 | 6.8 | 6.66 | 6.22 | 5.59 | 4.71
303.15 K | 5.5 | 6.58 | 7.52 | 8.13 | 8.55 | 8.45 | 7.99 | 7.3 | 6.12
308.15 K | 6.49 | 7.95 | 9.11 | 10.1 | 10.4 | 10.5 | 10.1 | 9.2 | 7.99
313.15 K | 8.08 | 9.85 | 11.3 | 12.4 | 13 | 13 | 12.6 | 11.7 | 9.97
318.15 K | 10.2 | 12.3 | 14.1 | 15.4 | 16.1 | 16.2 | 15.6 | 14.4 | 12.6
323.15 K | 13 | 15.5 | 17.7 | 19.2 | 20.1 | 20.3 | 19.6 | 18.3 | 16.1

CCOc1ccccc1C(N)=O + CC#N + CCO
323.15 K
Conditions | solubility (g/100 g solution)
x2 = 0.1 | 17.4
x2 = 0.2 | 19.8
x2 = 0.3 | 21.8
x2 = 0.4 | 23.3
x2 = 0.5 | 23.9
x2 = 0.6 | 23.3
x2 = 0.7 | 21.7
x2 = 0.8 | 19.3
x2 = 0.9 | 16.4

CCOC(=O)OC1=C(c2cc(C)ccc2C)C(=O)NC12CCC(OC)CC2 (centres undefined) + CC(C)=O + O
solubility (g/100 g solution)
Conditions | 278.15 K | 283.15 K | 288.15 K | 293.15 K | 298.15 K | 303.15 K | 308.15 K | 313.15 K | 318.15 K
x2 = 0.2 | 0.475 | 0.687 | 0.839 | 1.08 | 1.39 | 1.78 | 2.25 | 2.83 | 3.61
x2 = 0.4 | 3.7 | 4.54 | 5.58 | 6.92 | 8.55 | 10.5 | 12.8 | 15.7 | 19
x2 = 0.6 | 7.51 | 9.16 | 10.8 | 13 | 15.4 | 18.3 | 21.6 | 25.5 | 29.7
x2 = 0.8 | 9.34 | 10.6 | 12.6 | 14.8 | 17.3 | 20.3 | 23.7 | 27.4 | 31.4

Cc1nc2n(c(=O)c1CCN1CCC(c3noc4cc(F)ccc34)CC1)CCCC2 + CC(C)=O + O
solubility (g/100 g solution)
Conditions | 278.15 K | 283.15 K | 288.15 K | 293.15 K | 298.15 K | 303.15 K | 308.15 K | 313.15 K
x2 = 0.1175 | 0.369 | 0.399 | 0.453 | 0.525 | 0.623 | 0.702 | 0.817 | 0.918
x2 = 0.1714 | 0.727 | 0.805 | 0.935 | 1.11 | 1.27 | 1.53 | 1.7 | 2.03
x2 = 0.2368 | 1.54 | 1.75 | 2.02 | 2.34 | 2.73 | 3.22 | 3.75 | 4.38
x2 = 0.3171 | 2.54 | 2.93 | 3.36 | 3.95 | 4.61 | 5.44 | 6.41 | 7.62
x2 = 0.42 | 3.38 | 3.87 | 4.49 | 5.26 | 6.16 | 7.21 | 8.51 | 10.1
x2 = 0.5538 | 3.5 | 4.03 | 4.71 | 5.51 | 6.46 | 7.65 | 9.06 | 10.7
x2 = 0.7366 | 2.51 | 2.92 | 3.5 | 4.08 | 4.75 | 5.67 | 6.67 | 7.88

Nc1nc2ccc(OC(F)(F)F)cc2s1 + CC(C)=O + O
solubility (g/100 g solution)
Conditions | 278.15 K | 283.15 K | 288.15 K | 293.15 K | 298.15 K | 303.15 K | 308.15 K | 313.15 K | 318.15 K | 323.15 K
x2 = 0.1174 | 2.79 | 2.99 | 3.26 | 3.49 | 3.89 | 4.23 | 4.48 | 4.79 | 4.98 | 5.23
x2 = 0.1714 | 6.6 | 6.96 | 7.42 | 7.95 | 8.29 | 8.75 | 9.09 | 9.43 | 9.77 | 10.1
x2 = 0.2367 | 25.5 | 25.9 | 26.5 | 27 | 27.6 | 28 | 28.5 | 29.1 | 29.8 | 30.1
x2 = 0.3175 | 40.2 | 40.6 | 40.9 | 41.1 | 41.5 | 41.8 | 42 | 42.3 | 42.7 | 43
x2 = 0.4203 | 55.1 | 56.3 | 57 | 57.7 | 59 | 60.2 | 61.1 | 62.2 | 62.9 | 63.6
x2 = 0.5537 | 70.6 | 71.7 | 72.7 | 73.6 | 74.5 | 75.3 | 76.2 | 76.7 | 77.2 | 77.8
x2 = 0.7361 | 68 | 69 | 69.9 | 71 | 71.8 | 72.8 | 73.6 | 74.2 | 75 | 75.7

CC(S)C(=O)NCC(=O)O (centres undefined) + CC(C)CO + CC#N
solubility (g/100 g solution)
Conditions | 273.15 K | 278.15 K | 283.15 K | 288.15 K | 293.15 K | 298.15 K | 303.15 K | 308.15 K | 313.15 K | 318.15 K
x2 = 0.1216 | 3.99 | 4.43 | 4.93 | 5.48 | 6.05 | 6.7 | 7.36 | 8.06 | 8.81 | 9.64
x2 = 0.2697 | 4.62 | 5.31 | 6.02 | 6.81 | 7.59 | 8.41 | 9.25 | 10.1 | 11.2 | 12.4
x2 = 0.4538 | 7.02 | 7.59 | 8.23 | 8.89 | 9.58 | 10.4 | 11.1 | 12 | 13 | 13.9
x2 = 0.689 | 4.17 | 4.7 | 5.22 | 5.84 | 6.48 | 7.14 | 7.88 | 8.69 | 9.56 | 10.5

CC(S)C(=O)NCC(=O)O (centres undefined) + CC(C)CO + Cc1ccccc1
solubility (g/100 g solution)
Conditions | 273.15 K | 278.15 K | 283.15 K | 288.15 K | 293.15 K | 298.15 K | 303.15 K | 308.15 K | 313.15 K | 318.15 K
x2 = 0.2371 | 0.622 | 0.677 | 0.744 | 0.819 | 0.9 | 0.989 | 1.09 | 1.21 | 1.34 | 1.48
x2 = 0.4531 | 1.14 | 1.3 | 1.45 | 1.64 | 1.87 | 2.12 | 2.37 | 2.63 | 2.92 | 3.35
x2 = 0.6509 | 1.71 | 1.98 | 2.28 | 2.67 | 3.04 | 3.56 | 4.09 | 4.71 | 5.39 | 6.3
x2 = 0.8325 | 2.92 | 3.45 | 4.01 | 4.57 | 5.19 | 5.87 | 6.57 | 7.38 | 8.31 | 9.34

CCOc1ccccc1C(N)=O + CC(C)O + CC#N
293.15 K
Conditions | solubility (g/100 g solution)
x2 = 0.1 | 3.74
x2 = 0.2 | 4.36
x2 = 0.3 | 4.92
x2 = 0.4 | 5.26
x2 = 0.5 | 5.44
x2 = 0.6 | 5.14
x2 = 0.7 | 4.81
x2 = 0.8 | 4.2
x2 = 0.9 | 3.48
